Experimental data published in patent US8044089B2, “3-3-di-substituted-oxindoles as inhibitors of translation initiation” (President and Fellows of Harvard College, priority 2004, dated 2011).
pIC50: −log10 of the molar value.

Legend:
[1] = system: intracellular Ca^2+ stores; experiment: Ca2+ release from intracellular stores (FURA-2AM loaded cells); format: cell-based; set-up: key to Ca^2+ (Ca^2+ release from intracellular stores): a “+” denotes release; a “+/−” denotes inconclusive
From the text: (§1) As a non-limiting example, compounds 1272 and 1273 (set forth in Table 1) were synthesized starting from 3-bromoaniline, which upon condensation with hydroxylamine and chloral hydrate followed by concentrated sulfuric acid yielded an inseparable regioisomeric mixture of 4- and 6-bromo isatins. The addition of the two phenyl groups to the three position of the oxindole allowed easy chromatographic separation of the 4- and 6-bromo-3,3-diphenyloxindoles 1272 and 1273. Table 1 sets forth biological data for diaryloxindole compounds including, but not limited to 1272 and 1273. For Tables 1-14, Ca^2+ refers to Ca^2+ release from intracellular stores where a “+” denotes release and a “+/−” denotes inconclusive; eIF2α-P refers to phosphorylation of eIF2α measured by Western blot; SRB refers to the inhibitory concentration to reduce cell growth by 50% (IC50) for growth inhibition of A549 lung cancer cells; and n.d. is not determined.
(§2) Without intending to be bound by theory, the mechanism of action of translation initiation inhibitors is set forth in FIG. 1, and includes the depletion (complete or partial depletion) of intracellular calcium (Ca^2+) stores and phosphorylation of eIF2α. Compounds synthesized using the approaches described herein were screened for their ability to partially deplete intracellular Ca^2+ stores using FURA-2AM loaded cells (Benzaquen et al. (1995) Nature Medicine, 1:534, incorporated herein by reference in its entirety for all purposes). A limited subset of compounds were further screened for their ability to deplete endoplasmic reticulum (ER) Ca^2+. The Ca^2+ content of the ER was monitored using ER-targeted, Ca^2+ sensitive, recombinant proteins. These recombinant proteins emitted light by fluorescent resonance energy transfer (FRET) as a function of the Ca^2+ content of the medium. Such assays are previously described (Miyawaki, A.; Mizuno, H.; Llopis, J.; Tsien, R. Y.; Jalink, K. Cameleons as cytosolic and intra-organellar calcium probes, Oxford University Press: Oxford, London, 2001; pp 3-16, incorporated herein by reference in its entirety for all purposes). Compounds that depleted Ca^2+ were further evaluated for their ability to phosphorylate eIF2α. eIF2α phosphorylation was measured by Western blot analysis using the phospho-specific anti-eIF2α antibody, as previously described (Aktas et al. (1998) Proc. Natl. Acad. Sci. USA, 95:8280, incorporated herein by reference in its entirety for all purposes).

eIF2α = eIF2α phosphorylation measured by Western blot; format: cell-based; conditions: for eIF2α-P (phosphorylation of eIF2α measured by Western blot): unit or reference not given
From the text: as §1, §2

A549 lung cancer cells = experiment: SRB growth inhibition of A549 lung cancer cells; format: cell-based, human; conditions: A549 lung cancer cells; unit inferred; read-out: SRB (IC50 for growth inhibition of A549 lung cancer cells)
From the text: As a non-limiting example, compounds 1272 and 1273 (set forth in Table 1) were synthesized starting from 3-bromoaniline, which upon condensation with hydroxylamine and chloral hydrate followed by concentrated sulfuric acid yielded an inseparable regioisomeric mixture of 4- and 6-bromo isatins. The addition of the two phenyl groups to the three position of the oxindole allowed easy chromatographic separation of the 4- and 6-bromo-3,3-diphenyloxindoles 1272 and 1273. Table 1 sets forth biological data for diaryloxindole compounds including, but not limited to 1272 and 1273. For Tables 1-14, Ca^2+ refers to Ca^2+ release from intracellular stores where a “+” denotes release and a “+/−” denotes inconclusive; eIF2α-P refers to phosphorylation of eIF2α measured by Western blot; SRB refers to the inhibitory concentration to reduce cell growth by 50% (IC50) for growth inhibition of A549 lung cancer cells; and n.d. is not determined. […]

SMILES | pIC50 (A549 lung cancer cells) | Ca^2+ (Ca^2+ release from intracellular stores) [1] | eIF2α-P (phosphorylation of eIF2α measured by Western blot) (eIF2α) | eIF2α phosphorylation (in words) (eIF2α) | Ca^2+ release / depletion of intracellular Ca^2+ (in words) [1]
COC(=O)C(Cc1ccc(O)c(C2(c3ccccc3)C(=O)Nc3ccccc32)c1)NC(=O)OCC1c2ccccc2-c2ccccc21 (stereo not shown) [Compound 1172] | – | + | 1.94 | – | –
O=C1Nc2ccccc2C1(c1ccc(Cl)cc1)c1ccccc1O (stereo not shown) [Compound 1208] | 5.00 | + | 1.42 | – | –
CC(C)(C)c1ccc(O)c(C2(c3ccccc3)C(=O)Nc3cccc(Cl)c32)c1 (stereo not shown) [Compound 1209] | 5.10 | + | 2.08 | – | –
CC(C)(C)c1ccc(O)c(C2(c3ccc(F)cc3)C(=O)Nc3ccccc32)c1 (stereo not shown) [Compound 1210] | 5.40 | + | 1.86 | – | –
CC(C)(C)c1ccc(O)c(C2(c3ccccc3)C(=O)Nc3ccc(Br)cc32)c1 (stereo not shown) [Compound 1211] | 5.52 | + | 1.14 | – | –
CC(C)(C)c1ccc(O)c(C2(c3ccccc3)C(=O)Nc3ccc([N+](=O)[O-])cc32)c1 (stereo not shown) [Compound 1212] | 5.40 | + | 1.28 | – | –
CC(C)(C)c1ccc(O)c(C2(c3ccccc3)C(=O)Nc3ccc(I)cc32)c1 (stereo not shown) [Compound 1213] | 5.52 | +/− | 2 | – | –
COc1ccc2c(c1)C(c1ccccc1)(c1cc(C(C)(C)C)ccc1O)C(=O)N2 (stereo not shown) [Compound 1214] | 5.22 | + | 1.62 | – | –
C=CCCCOc1ccc(C2(c3cc(C(C)(C)C)ccc3O)C(=O)Nc3ccccc32)cc1 (stereo not shown) [Compound 1218] | 5.15 | – | 1.36 | – | –
O=C1Nc2c(I)cccc2C1(c1ccccc1)c1ccccc1 [Compound 1267] | – | – | 1.88 | – | –
CCCCCCCCCCCCC1(c2cc(C(C)(C)C)ccc2O)C(=O)Nc2ccccc21 (stereo not shown) [Compound 1274] | 5.52 | – | 0.91 | – | –
CC(C)(C)c1ccc(O)c(C2(C3CCCCC3)C(=O)Nc3ccccc32)c1 (stereo not shown) [Compound 1277] | 5.00 | – | 1.08 | – | –

Continued, in another order:

pIC50 (A549 lung cancer cells) | SMILES | Ca^2+ (Ca^2+ release from intracellular stores) [1] | eIF2α-P (phosphorylation of eIF2α measured by Western blot) (eIF2α) | eIF2α phosphorylation (in words) (eIF2α) | Ca^2+ release / depletion of intracellular Ca^2+ (in words) [1]
4.89 | O=C1Nc2ccccc2C1(c1ccccc1)c1ccccc1 [Compound 1194] | + | 2.5 | – | –
4.85 | O=C1Nc2ccccc2C1(c1ccccc1)c1ccccc1O (stereo not shown) [Compound 1197] | + | 1.50 | – | –
5.05 | O=C1Nc2ccc(Br)cc2C1(c1ccccc1)c1ccccc1 [Compound 1205] | + | 2.05 | none of the compounds exhibited an increase in eIF2α phosphorylation relative to compound 1392 | –
5.05 | O=C1Nc2ccc(Cl)cc2C1(c1ccccc1)c1ccccc1 [Compound 1206] | + | 1.58 | – | –
5.52 | O=C1Nc2c(Br)cccc2C1(c1ccccc1)c1ccccc1 [Compound 1207] | +/− | 2.01 | none of the compounds exhibited an increase in eIF2α phosphorylation relative to compound 1392 | abrogated Ca^2+ depletion activity
5.05 | O=C1Nc2ccc(S(=O)(=O)O)cc2C1(c1ccccc1)c1ccccc1 [Compound 1266] | – | 1.62 | – | –
4.85 | CCc1cccc2c1NC(=O)C2(c1ccccc1)c1ccccc1 [Compound 1268] | – | 2.19 | – | –
